Source: patent EP4038059B1, “SUBSTITUTED CARBAZOLE COMPOUNDS” (Bristol-Myers Squibb Company, priority 2019, dated 2021)

What was measured:
Format in all cases: cell-based
[1] = biological target: T1, human TLR8 (Homo sapiens, UniProt Q9NR97); test: TLR8 inhibition reporter assay (HEK-Blue SEAP); settings: HEK-Blue cells overexpressing human TLR8, stimulated with R848 15.9 µM, 22 h incubation
T1 construct: host or cells: HEK-Blue cells
T1 sequence (Q9NR97 27-1041): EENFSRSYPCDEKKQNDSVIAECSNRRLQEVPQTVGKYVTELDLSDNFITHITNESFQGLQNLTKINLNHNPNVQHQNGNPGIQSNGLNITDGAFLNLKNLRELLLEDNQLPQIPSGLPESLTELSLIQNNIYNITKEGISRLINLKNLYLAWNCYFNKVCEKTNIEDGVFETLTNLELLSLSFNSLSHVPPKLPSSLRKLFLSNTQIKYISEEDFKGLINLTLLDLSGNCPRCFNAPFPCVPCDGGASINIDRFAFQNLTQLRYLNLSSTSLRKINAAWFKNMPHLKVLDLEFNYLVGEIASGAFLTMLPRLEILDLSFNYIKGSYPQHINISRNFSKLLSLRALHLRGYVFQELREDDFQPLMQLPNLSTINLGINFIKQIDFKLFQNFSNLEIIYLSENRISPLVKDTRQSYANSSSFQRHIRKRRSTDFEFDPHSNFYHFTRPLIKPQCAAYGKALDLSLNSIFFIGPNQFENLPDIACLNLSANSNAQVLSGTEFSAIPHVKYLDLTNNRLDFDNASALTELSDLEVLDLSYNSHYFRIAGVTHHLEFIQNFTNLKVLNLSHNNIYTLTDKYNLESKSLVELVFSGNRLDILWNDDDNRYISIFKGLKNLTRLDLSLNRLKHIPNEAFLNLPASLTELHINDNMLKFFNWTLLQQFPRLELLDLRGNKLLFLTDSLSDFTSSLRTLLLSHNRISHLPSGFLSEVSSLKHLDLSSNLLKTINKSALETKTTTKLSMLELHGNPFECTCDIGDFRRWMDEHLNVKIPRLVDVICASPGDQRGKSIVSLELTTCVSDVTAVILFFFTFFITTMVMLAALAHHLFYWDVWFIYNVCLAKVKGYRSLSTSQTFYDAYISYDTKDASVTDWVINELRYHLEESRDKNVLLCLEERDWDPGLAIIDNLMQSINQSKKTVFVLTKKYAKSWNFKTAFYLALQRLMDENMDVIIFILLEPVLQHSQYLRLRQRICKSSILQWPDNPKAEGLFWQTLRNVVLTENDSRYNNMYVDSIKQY
Experimental: (§1) HEK-Blue™-cells (Invivogen) overexpressing human TLR7, TLR8 or TLR9 receptors were used for screening inhibitors of these receptors using an inducible SEAP (secreted embryonic alkaline phosphatase) reporter gene under the control of the IFN-β minimal promoter fused to five NF-κB and AP-1-binding sites. Briefly, cells are seeded into Greiner 384 well plates (15000 cells per well for TLR7, 20,000 for TLR8 and 25,000 for TLR9) and then treated with test compounds in DMSO to yield a final dose response concentration range of 0.05 nM - 50 µM. After a 30 minute compound pre-treatment at room temperature, the cells are then stimulated with a TLR7 ligand (gardiquimod at a final concentration of 7.5 µM), TLR8 ligand (R848 at a final concentration of 15.9 µM) or TLR9 ligand (ODN2006 at a final concentration of 5 nM) to activate NF-κB and AP-1 which induce the production of SEAP. After a 22 h incubation at 37°C, 5% CO2, SEAP levels are determined with the addition of HEK-Blue™ Detection reagent (Invivogen), a cell culture medium that allows for detection of SEAP, according to manufacturer's specifications. The percent inhibition is determined as the % reduction in the HEK-Blue signal present in wells treated with agonist plus DMSO alone compared to wells treated with a known inhibitor.

[2] = biological target: T2, human TLR7 (Homo sapiens, UniProt Q9NYK1); test: TLR7 inhibition reporter assay (HEK-Blue SEAP); settings: HEK-Blue cells overexpressing human TLR7, stimulated with gardiquimod 7.5 µM, 22 h incubation
T2 construct: host or cells: HEK-Blue cells
T2 sequence (Q9NYK1 27-1049): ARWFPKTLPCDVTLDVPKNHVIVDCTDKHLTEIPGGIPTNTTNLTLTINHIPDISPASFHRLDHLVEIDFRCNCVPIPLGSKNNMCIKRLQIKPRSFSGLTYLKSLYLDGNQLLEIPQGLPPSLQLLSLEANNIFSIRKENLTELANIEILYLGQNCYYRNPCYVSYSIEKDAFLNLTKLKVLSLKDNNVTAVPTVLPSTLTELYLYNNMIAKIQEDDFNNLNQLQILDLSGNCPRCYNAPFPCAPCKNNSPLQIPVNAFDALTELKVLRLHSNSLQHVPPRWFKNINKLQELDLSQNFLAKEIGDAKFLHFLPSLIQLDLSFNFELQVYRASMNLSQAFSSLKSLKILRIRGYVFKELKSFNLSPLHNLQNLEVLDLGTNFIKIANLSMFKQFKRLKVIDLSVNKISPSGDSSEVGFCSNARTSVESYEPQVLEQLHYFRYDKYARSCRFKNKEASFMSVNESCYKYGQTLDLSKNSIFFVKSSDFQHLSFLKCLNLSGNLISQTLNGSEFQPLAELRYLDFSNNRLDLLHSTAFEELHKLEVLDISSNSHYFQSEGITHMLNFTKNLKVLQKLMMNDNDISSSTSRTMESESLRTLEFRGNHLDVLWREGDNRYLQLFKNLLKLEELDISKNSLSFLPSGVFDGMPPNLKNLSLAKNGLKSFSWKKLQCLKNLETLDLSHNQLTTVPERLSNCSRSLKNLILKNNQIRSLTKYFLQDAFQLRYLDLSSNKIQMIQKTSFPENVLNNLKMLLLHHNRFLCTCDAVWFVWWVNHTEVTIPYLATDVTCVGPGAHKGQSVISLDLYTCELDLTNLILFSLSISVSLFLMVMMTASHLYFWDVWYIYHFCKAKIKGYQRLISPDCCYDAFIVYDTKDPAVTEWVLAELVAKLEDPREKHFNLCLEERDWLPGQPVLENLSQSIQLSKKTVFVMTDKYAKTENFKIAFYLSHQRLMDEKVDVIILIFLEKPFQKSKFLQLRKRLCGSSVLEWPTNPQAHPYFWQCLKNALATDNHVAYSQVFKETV
Experimental: as §1

[3] = biological target: T3, human TLR9 (Homo sapiens, UniProt Q9NR96); test: TLR9 inhibition reporter assay (HEK-Blue SEAP); settings: HEK-Blue cells overexpressing human TLR9, stimulated with ODN2006 5 nM, 22 h incubation
T3 construct: host or cells: HEK-Blue cells
T3 sequence (Q9NR96 26-1032): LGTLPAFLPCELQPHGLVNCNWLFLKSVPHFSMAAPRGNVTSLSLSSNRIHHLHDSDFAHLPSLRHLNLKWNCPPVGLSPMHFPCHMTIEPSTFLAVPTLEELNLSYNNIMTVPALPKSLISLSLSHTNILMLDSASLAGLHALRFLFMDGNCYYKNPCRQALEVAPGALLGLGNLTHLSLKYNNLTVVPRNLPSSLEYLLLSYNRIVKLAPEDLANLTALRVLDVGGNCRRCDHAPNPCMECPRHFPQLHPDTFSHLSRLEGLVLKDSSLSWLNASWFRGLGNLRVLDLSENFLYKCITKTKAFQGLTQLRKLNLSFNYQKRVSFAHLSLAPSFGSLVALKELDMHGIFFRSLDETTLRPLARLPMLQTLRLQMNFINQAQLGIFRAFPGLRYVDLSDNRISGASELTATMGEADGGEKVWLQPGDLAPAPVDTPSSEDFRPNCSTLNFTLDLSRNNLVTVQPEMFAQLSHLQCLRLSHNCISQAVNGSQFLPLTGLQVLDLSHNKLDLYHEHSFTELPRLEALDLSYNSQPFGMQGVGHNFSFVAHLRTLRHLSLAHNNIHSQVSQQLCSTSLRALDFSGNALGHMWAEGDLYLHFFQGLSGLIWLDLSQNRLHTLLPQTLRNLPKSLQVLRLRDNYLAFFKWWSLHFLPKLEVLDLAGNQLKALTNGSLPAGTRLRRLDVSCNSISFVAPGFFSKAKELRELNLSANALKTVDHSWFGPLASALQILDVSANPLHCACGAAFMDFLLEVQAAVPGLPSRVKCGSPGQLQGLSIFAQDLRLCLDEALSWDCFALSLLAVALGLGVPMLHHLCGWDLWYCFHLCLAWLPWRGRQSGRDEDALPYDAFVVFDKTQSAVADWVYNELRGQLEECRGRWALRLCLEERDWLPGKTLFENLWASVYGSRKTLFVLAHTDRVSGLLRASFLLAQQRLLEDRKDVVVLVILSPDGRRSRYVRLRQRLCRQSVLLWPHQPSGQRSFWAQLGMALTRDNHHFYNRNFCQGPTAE
Experimental: as §1

| Structure (SMILES) | IC50 [1] [nM] | IC50 [2] [nM] | IC50 [3] [nM] |
| --- | --- | --- | --- |
| COc1cc(-c2cc3[nH]c4ccc(C5CN(C6COC6)C5)cc4c3c(C)c2C)cn2ncnc12 [Example 36] | 1.8 | 5.6 | 861 |
| COc1cc(-c2cc3[nH]c4ccc(C5CN(CC(C)(C)O)C5)cc4c3c(C)c2C)cn2ncnc12 [Example 38] | 0.4 | 2.5 | 514 |
| COc1cc(-c2cc3[nH]c4ccc(C5CN(CC#N)C5)cc4c3c(C)c2C)cn2ncnc12 [Example 39] | 4 | 11 | 1240 |
